Results from patent US20260115202A1, “TOPICAL COMPOSITIONS COMPRISING AN ESTETROL COMPONENT AND USE OF SAID COMPOSITIONS FOR WOUND HEALING” (NEURALIS SA, priority 2022, published 2026).
“Also recorded” adds a separate entry of the source.

Tests used:
[1] = system: normal human epidermal keratinocytes (NHEKs); experiment: Scratch wound assay, normal human epidermal keratinocytes; type: cell-based; conditions: NHEK, 10^−7/10^−8 M range, 15% and 30% HKGS, 24 hours
Protocol: (§1) Primary human dermal fibroblasts (HDF) were isolated from abdominal skin or leg skin. Primary neonatal normal human epidermal keratinocytes (NHEK) were purchased (Lonza). Murine dermal fibroblasts (MDF), murine epidermal keratinocytes (MEK), murine peritoneal macrophages and murine bone marrow were isolated from C57/B16 (wt). NDb (Lepr+/−) or Db (Lepr−/−) mice.
(§2) Neonatal HEK were cultured in EpiLife supplemented with […] human keratinocyte growth supplements (HKGS) and 1% penicillin/streptomycin. MEK were cultured in CnT basal medium supplemented with 1% penicillin/streptomycin and 1% amphotericin B.
Cells were seeded into 24 well plates and cultured to form a confluent monolayer, and then scratched with a 1 ml pipette tip. Wells were treated with E2, E4 and/or various estrogen receptor agonists and antagonists. […] A vehicle control containing the equivalent concentration of EtOH and/or DMSO was included, in addition to an untreated negative control. All treatments were diluted to working concentrations in media supplemented with 2% charcoal-stripped FBS. […] Scratch closure was determined from multiple independent measurements per well.
The effects of E2 and E4 on keratinocyte migration where evaluated using primary normal human epidermal keratinocytes (NHEKs).

[2] = system: murine dermal fibroblasts (MDF); experiment: qPCR gene expression in murine dermal fibroblasts; type: cell-based, mouse; conditions: for expression of ERα and ERβ: MDF, 10^−7M, qPCR
Description: Primary human dermal fibroblasts (HDF) were isolated from abdominal skin or leg skin. Primary neonatal normal human epidermal keratinocytes (NHEK) were purchased (Lonza). Murine dermal fibroblasts (MDF), murine epidermal keratinocytes (MEK), murine peritoneal macrophages and murine bone marrow were isolated from C57/B16 (wt). NDb (Lepr+/−) or Db (Lepr−/−) mice. Fibroblasts were isolated and cultured in DMEM supplemented with 10% heat inactivated FBS. 1% penicillin/streptomycin and 1% amphotericin B. At least 4 days prior to performing assays cells were switched to DMEM supplemented with 5% charcoal-stripped FBS. Following treatments, human and murine macrophages were collected in Trizol and RNA isolated using the Trizol plus RNA isolation kit (Invitrogen. Thermo Fisher) according to the manufacturer's instructions. RNA was reverse transcribed to cDNA using GoScript reverse transcriptase (Promega). Quantitative real-time PCR was carried out using 2×Takyon SYBR Green mastermix and a CFX Connect thermocycler. Primers for ERα and ERβ were used to explore changes in ER expression after treatment of MEK and MDF with E2 and E4. To investigate the effect of E2 and E4 on MEK differentiation and the expression of ECM proteins by MDF, primers for. Snail, keratin-1 and fibronectin, collagen I. MMP-2 and MMP-9 were used. Primers for INOS. IL-1B and Tnf-α or Ccl17 were used to assess M1/M2 polarisation status. Primers for GAPDH were used to normalise data. Relative gene expression was set to vehicle controls or M0 expression unless otherwise stated. In vitro cultured murine fibroblasts were treated with either E2, E4, DPN or PPT at 10^−7M. As previously reported. […] Next, zymography was performed on cell supernatants from HDFs treated with either E2 or E4, to evaluate the effect of E2 and E4 on cell-derived MMP activity. […] The magnitude of the effect (and statistical significance) was greater in cells treated with E4. No MMP9 activity was detected in any treatment group. Finally, we explored the effect of E2 and E4 on murine fibroblast expression of extracellular matrix genes, specifically collagen 1 (Colal) and fibronectin (Fn1) (FIG. 20).

[3] = system: murine dermal fibroblasts (MDFs); experiment: Scratch wound assay, murine dermal fibroblasts; type: cell-based, mouse; conditions: MDF, 24 hours, versus vehicle control
Description: as §1
Fibroblasts were isolated and cultured in DMEM supplemented with 10% heat inactivated FBS. 1% penicillin/streptomycin and 1% amphotericin B. At least 4 days prior to performing assays cells were switched to DMEM supplemented with 5% charcoal-stripped FBS.
Cells were seeded into 24 well plates and cultured to form a confluent monolayer, and then scratched with a 1 ml pipette tip. Wells were treated with E2, E4 and/or various estrogen receptor agonists and antagonists. […] A vehicle control containing the equivalent concentration of EtOH and/or DMSO was included, in addition to an untreated negative control. All treatments were diluted to working concentrations in media supplemented with 2% charcoal-stripped FBS. To visualise scratches at the defined endpoint, cells were stained with crystal violet and imaged on a Nikon E400 brightfield microscope. Scratch closure was determined from multiple independent measurements per well.

[4] = system: mouse bone marrow derived macrophages (BMDM); experiment: M1-polarised murine bone marrow derived macrophages, qPCR of M1 markers; type: cell-based; conditions: for relative iNOS expression (M1 cell phenotype): formulations and E2/E4
Protocol: Bones were flushed with DMEM supplemented with 1% penicillin/streptomycin and 1% amphotericin B. Bone marrow cells were seeded into 12- or 6-well plates at 1×10^6 cells/ml in DMEM supplemented with 10% FBS and 10% L929-conditioned medium to induce differentiation. After 7-10 days, differentiated macrophages were treated with 10^−7M E2 or E4 in serum free growth medium for 16 hours and polarised to M1-type cells using 100 ng/ml IFN-γ and 1 μg/ml LPS. Following 6- or 24-hours polarisation cells were collected for RNA isolation or flow cytometry.
(§3) Following treatments, human and murine macrophages were collected in Trizol and RNA isolated using the Trizol plus RNA isolation kit (Invitrogen. Thermo Fisher) according to the manufacturer's instructions. RNA was reverse transcribed to cDNA using GoScript reverse transcriptase (Promega). Quantitative real-time PCR was carried out using 2×Takyon SYBR Green mastermix and a CFX Connect thermocycler. Primers for ERα and ERβ were used to explore changes in ER expression after treatment of MEK and MDF with E2 and E4. To investigate the effect of E2 and E4 on MEK differentiation and the expression of ECM proteins by MDF, primers for. Snail, keratin-1 and fibronectin, collagen I. MMP-2 and MMP-9 were used. Primers for INOS. IL-1B and Tnf-α or Ccl17 were used to assess M1/M2 polarisation status. Primers for GAPDH were used to normalise data. Relative gene expression was set to vehicle controls or M0 expression unless otherwise stated.
For follow up experiments murine bone marrow derived monocytes were isolated, differentiated (L929 media) and polarised to a pro-inflammatory M1 phenotype (IFN-γ and LPS: for 6 or 24 hours), and co-treated with either E2 or E4 at the optimal concentration identified in THP1 cells (10^−7: FIG. 24). […] Experiments were then undertaken with murine bone marrow derived monocytes differentiated to macrophages with 30 ng/ml MCSF, as opposed to L929 conditioned media.

[5] = system: primary mouse epidermal keratinocytes (MEKs); experiment: qPCR gene expression in primary mouse epidermal keratinocytes; type: cell-based; conditions: MEK; for expression of EMT marker Snail: 10^−7M; for expression of ERα and ERβ: particularly at 10^−7M, 24 hours, not statistically significant
Protocol: as §1, §2, §3
Next, we switched to primary mouse epidermal keratinocytes (MEKs) to explore the effect of E2 and E4 on MEK wound-relevant gene expression. […] Snail, following treatment with either E2 or E4 at 10^−7M. […] In general, the observed effects of E2 and E4 on gene expression were reversed by co-treatment with the ER antagonist ICI.

[6] = fibroblasts derived from diabetic (db/db) mice
[7] = fibroblasts derived from wild-type mice
[8] = L929 differentiated BMDM, M1 polarised 6 or 24 hours, 10^−7, versus vehicle
[9] = L929 differentiated BMDM, M1 polarised
[10] = MCSF differentiated BMDM, M1 polarised
[11] = MCSF differentiated BMDM, M1 polarised, 10^−7M, versus vehicle

SMILES	scratch wound closure [1]	expression of ERα and ERβ [2]	expression of collagen 1 and fibronectin (Fn1) [2, 6]	expression of collagen 1 and fibronectin (Fn1) [2, 7]	scratch closure [3]	expression of M1 markers (iNOS, IL1-β, Tnf-α) [4, 8]	relative iNOS expression (M1 cell phenotype) [4, 9]	expression of M1 marker iNOS [4, 10]	expression of M1 markers (iNOS, IL1-β, Tnf-α) [4, 11]	expression of differentiation marker Keratin 1 (Krt1) [5]	expression of EMT marker Snail [5]	expression of ERα and ERβ [5]
C[C@]12CC[C@@H]3c4ccc(O)cc4CC[C@H]3[C@@H]1CC[C@@H]2O [Formulation E2, 17β-estradiol, reference compound]	strong trend to faster wound closure	upregulated expression of both ERα and ERβ	trend towards increased expression of both Co1a1 and Fn1	no effect was observed following treatment	significantly increased scratch closure compared to vehicle control treatment	trend toward decreased expression of a range of M1 markers	significantly dampened the M1 cell phenotype	statistically significant reduction in the M1 marker INOS	strong trend towards reduced expression	trend towards downregulation	statistically significant induction	strong trend towards induction of both ERα and ERβ
C[C@]12CC[C@@H]3c4ccc(O)cc4CC[C@H]3[C@@H]1[C@@H](O)[C@@H](O)[C@@H]2O [Formulation E4, 1,3,5 (10)-estratrien-3,15alpha, 16alpha, 17beta-tetrol]	strong trend to faster wound closure	increases expression of both ERα and ERβ	trend towards increased expression of both Co1a1 and Fn1; also recorded: reached statistical significance for fibronectin (Fn1)	no effect was observed following treatment	significantly increased scratch closure compared to vehicle control treatment	trend toward decreased expression of a range of M1 markers	significantly dampened the M1 cell phenotype	statistically significant reduction in the M1 marker INOS	strong trend towards reduced expression	trend towards downregulation	statistically significant induction	strong trend towards increased expression of both ERα and ERβ
